Laboratory results: US4000281A, “Pyrazole derivatives” (priority 1971, dated 1976)
≈ marks a conversion by molar mass, not a printed value. Like-named read-outs stand apart in the source and are kept apart here.

Experiments:
Herpes Simplex [1] = assay: microbe, parasite or virus in culture; assay type: cell-based, rabbit; conditions: Oryctolagus cuniculus, 96 h; dose of 250 μg; virus pretreated with compound one hour; 50% considered significant; read-out: plaque-reduction
[2] = system: rhinovirus type 6 (SF1349); assay: Inhibition of rhinovirus cytopathogenic effect in human embryonic lung cultures, type 6; assay type: cell-based; conditions: 50 and 75 μgm/ml
Procedure: (§1) Other tests were carried out to determine the inhibitory effect of 3-(4-pyridyl)-4-(2-hydroxyphenyl)-5-ethylpyrazole on various types of rhinovirus.
(§2) In each test two cultures of human embryonic lung were prepared of which one was treated with the above compound while the other served as control. The cultures were then infected with a strain of rhinovirus. The compound was used in concentrations of 50 and 75 μgm/ml and was considered to be active if the cytopathogenic effect of the rhinovirus was reduced by at least 75% as compared to the control culture. This cytopathogenic effect was determined by counting the number of plaques formed by destroyed cells.
(§3) Seven human types of rhinovirus were employed and the following results registered: […]

Influenza Swine A = assay: animal or person; assay type: in vivo, mice; conditions: in Mus musculus, 48 h, read-out: Log Reductions (EID50) as compared with controls
[3] = system: rhinovirus type 7 (SF1470); assay: Inhibition of rhinovirus cytopathogenic effect in human embryonic lung cultures, type 7; assay type: cell-based; conditions: 50 and 75 μgm/ml
Procedure: as §1, §2, §3

[4] = system: rhinovirus type 50 (strain A2 No.58); assay: Gradient plate plaque-reduction technique in HeLa cells, rhinovirus type 50; assay type: cell-based, human; set-up: key: +: active
Procedure: (§4) A further series of tests was performed in which the inhibitory concentrations of 3-(4-pyridyl)-4-(2-hydroxyphenyl)-5-ethylpyrazole against various human types of rhinovirus were determined by the gradient plate plaque-reduction technique. Cultures of HeLa cancer cells were used of which two were prepared for each test. One culture was treated with the above compound which was applied in gradient while the other culture served as control. Both cultures were then infected with a human type of rhinovirus. The inhibitory concentration was determined by measuring the zone of inhibition on the cellsheet. Six types of rhinovirus were employed and the following results registered.

[5] = system: rhinovirus type 9 (prototype); assay: Inhibition of rhinovirus cytopathogenic effect in human embryonic lung cultures, type 9; assay type: cell-based; conditions: 50 and 75 μgm/ml
Procedure: as §1, §2, §3

Influenza Jap 305 = assay: 48-Hour Mouse Test (Test No. 2), Influenza Jap 305; assay type: in vivo, mice; conditions: read-out: Log Reductions (EID50) as compared with controls
[6] = system: rhinovirus type 39 (strain 209); assay: Gradient plate plaque-reduction technique in HeLa cells, rhinovirus type 39; assay type: cell-based, human; set-up: key: +: active
Procedure: as §4

[7] = system: rhinovirus type 27 (strain Cor. 28); assay: Gradient plate plaque-reduction technique in HeLa cells, rhinovirus type 27; assay type: cell-based, human; set-up: key to ACTIVITY: +: active
Procedure: as §4

Influenza virus Swine A = assay type: in vivo, mice; conditions: 500 mg/kg IP
Influenza viruses = assay: Mouse-Survival Test (Test No. 1), Influenza virus strain not given; assay type: in vivo, mice; conditions: unidentified influenza virus, 360 h
[8] = system: rhinovirus type 8 (prototype); assay: Inhibition of rhinovirus cytopathogenic effect in human embryonic lung cultures, type 8; assay type: cell-based; conditions: 50 and 75 μgm/ml
Procedure: as §1, §2, §3

[9] = system: rhinovirus type 14 (prototype); assay: Inhibition of rhinovirus cytopathogenic effect in human embryonic lung cultures, type 14; assay type: cell-based; conditions: 50 and 75 μgm/ml
Procedure: as §1, §2, §3

[10] = system: rhinovirus type 3 (prototype); assay: Inhibition of rhinovirus cytopathogenic effect in human embryonic lung cultures, type 3; assay type: cell-based; conditions: 50 and 75 μgm/ml
Procedure: as §1, §2, §3

Influenza PR8 = assay: 48-Hour Mouse Test (Test No. 2), Influenza PR8; assay type: in vivo, mice; conditions: virus dose not ascertained, read-out: Log Reductions (EID50) as compared with controls
Herpes = assay: Herpes-induced keratitis in the rabbit eye; assay type: in vivo; conditions: local use, 2, 1 and 0.5%
Procedure: Another test was carried out with this same compound in order to evaluate its action against Herpes-induced keratitis in the rabbit eye.

[11] = system: rhinovirus type 5 (prototype); assay: Inhibition of rhinovirus cytopathogenic effect in human embryonic lung cultures, type 5; assay type: cell-based; conditions: 50 and 75 μgm/ml
Procedure: as §1, §2, §3

Herpes Simplex [12] = assay: microbe, parasite or virus in culture; assay type: cell-based, rabbit; conditions: Oryctolagus cuniculus, 96 h; dose of 250 μg; tissue first infected, compound in overlay; 50% considered significant; read-out: plaque-reduction
Influenza virus Jap 305 = assay: Mouse-Survival Test (Test No. 1), Influenza Jap 305; assay type: in vivo, mice; conditions: for S.I.: significant if >1.24
[13] = system: rhinovirus type 44 (strain F01 3744); assay: Gradient plate plaque-reduction technique in HeLa cells, rhinovirus type 44; assay type: cell-based, human; set-up: key to ACTIVITY: +: active; -: inactive
Procedure: as §4

[14] = system: rhinovirus type 14 (strain 1059); assay: Gradient plate plaque-reduction technique in HeLa cells, rhinovirus type 14; assay type: cell-based, human; set-up: key to ACTIVITY: +: active; -: inactive
Procedure: as §4

Influenza virus = assay type: in vivo, mice; conditions: for S.I. / Survival Percent / MDD (Mean Day of Death): intranasal 10% suspension, 25 multiples of LD50; for MDD (Mean Day of Death): virus alone 6.20
[15] = system: rhinovirus type 55 (strain Wis 315E); assay: Gradient plate plaque-reduction technique in HeLa cells, rhinovirus type 55; assay type: cell-based, human; set-up: key to ACTIVITY: +: active
Procedure: as §4

[16] = Enterovirus, read-out: MINIMUM INHIBITORY Concentration
[17] = ip, read-out: Survival Index (S.I.)
[18] = Jap 305, 5 mg/kg IP, virus dose 20 multiples of LD50
[19] = Jap 305, 50 mg/kg IP, virus dose 32 multiples of LD50
[20] = Jap 305, 50 mg/kg PO, virus dose 3.2 multiples of LD50
[21] = Jap 305, 500 mg/kg IP, virus dose 32 multiples of LD50
[22] = Jap 305, 500 mg/kg PO, virus dose 3.2 multiples of LD50

CCc1[nH]nc(-c2ccncc2)c1-c1ccccc1O [Compound A, 3-(4-pyridyl)-4-(2-hydroxyphenyl)-5-ethylpyrazole]
inhibition at 250 µg (Herpes Simplex [1]): 60%
ACTIVITY [2]: + (active)
log reduction at 50 mg/kg (Influenza Swine A; ip): 1
log reduction at 500 mg/kg (Influenza Swine A; ip): 1.8
log reduction at 5 mg/kg (Influenza Swine A; po): 1.1
log reduction at 50 mg/kg (Influenza Swine A; po): 1.4
ACTIVITY [3]: + (active)
ACTIVITY [4]: +
ACTIVITY [5]: + (active)
log reduction at 50 mg/kg (Influenza Jap 305; ip): 1.53
log reduction at 5 mg/kg (Influenza Jap 305; po): 2
log reduction at 50 mg/kg (Influenza Jap 305; po): 2.7
log reduction at 500 mg/kg (Influenza Jap 305; po): 2.5
ACTIVITY [6]: +
ACTIVITY [7]: +
MIC [7, 16]: 15 to 16 µg/mL (≈ 56.5 to 60.3 µM)
Survival Percent (Influenza virus Swine A; virus dose 14 multiples of LD50): 50%
S.I. (Influenza virus Swine A; virus dose 14 multiples of LD50, significant if >1.24): 1.52
response vs control in vivo at 50 mg/kg (Influenza viruses; [17]): 137%
response vs control in vivo at 500 mg/kg (Influenza viruses; [17]): 171%
responders at 50 mg/kg (Influenza viruses; ip, read-out: Survival Percent): 0%
responders at 500 mg/kg (Influenza viruses; ip, read-out: Survival Percent): 37.5%
response vs control in vivo at 500 mg/kg (Influenza viruses; po, read-out: Survival Index (S.I.)): 171%
responders at 500 mg/kg (Influenza viruses; po, read-out: Survival Percent): 33.3%
ACTIVITY [8]: + (active)
ACTIVITY [9]: + (active)
ACTIVITY [10]: + (active)
log reduction at 5 mg/kg (Influenza PR8; PR8, 5 mg/kg IP): 1.41
log reduction at 50 mg/kg (Influenza PR8; PR8, 50 mg/kg IP): 1.69
log reduction at 50 mg/kg (Influenza PR8; PR8, 50 mg/kg PO): 1.21
log reduction at 500 mg/kg (Influenza PR8; PR8, 500 mg/kg IP): 1.87
log reduction at 500 mg/kg (Influenza PR8; PR8, 500 mg/kg PO): 1.07
formation of geographic keratitic lesions as compared to infected control animals (Herpes): inhibited the formation of geographic keratitic lesions
ACTIVITY [11]: + (active)
inhibition at 250 µg (Herpes Simplex [12]): 100%
Survival Percent (Influenza virus Jap 305; [18]): 20%
S.I. (Influenza virus Jap 305; [18]): 1.34
Survival Percent (Influenza virus Jap 305; [19]): 10%
S.I. (Influenza virus Jap 305; [19]): 1.34
Survival Percent (Influenza virus Jap 305; [20]): 60%
S.I. (Influenza virus Jap 305; [20]): 1.43
Survival Percent (Influenza virus Jap 305; [21]): 60%
S.I. (Influenza virus Jap 305; [21]): 2.04
Survival Percent (Influenza virus Jap 305; [22]): 66%
S.I. (Influenza virus Jap 305; [22]): 1.43
ACTIVITY [13]: -
MIC [13, 16]: 30 µg/mL (≈ 113 µM)
ACTIVITY [14]: -
MIC [14, 16]: 30 µg/mL (≈ 113 µM)
S.I. (Influenza virus; 30 min. before infection): 1.90
Survival Percent (Influenza virus; 30 min. before infection): 40%
MDD (Mean Day of Death) (Influenza virus; 30 min. before infection): 11.80 days
S.I. (Influenza virus; 2 hr. before infection): 2.07
Survival Percent (Influenza virus; 2 hr. before infection): 70%
MDD (Mean Day of Death) (Influenza virus; 2 hr. before infection): 12.80 days
S.I. (Influenza virus; 4 hr. before infection): 1.88
Survival Percent (Influenza virus; 4 hr. before infection): 60%
MDD (Mean Day of Death) (Influenza virus; 4 hr. before infection): 11.70 days
S.I. (Influenza virus; 6 hr. before infection): 1.90
Survival Percent (Influenza virus; 6 hr. before infection): 50%
MDD (Mean Day of Death) (Influenza virus; 6 hr. before infection): 11.80 days
persistence of the effect: differences between times of administration (Influenza virus; mouse, in vivo): no significant differences
protective effect (Influenza virus; mouse, in vivo): definite protective effect at all times of administration
survival period of the treated animals that did die, relative to controls (Influenza virus; mouse, in vivo): approximately twice that of the controls
ACTIVITY [15]: +
MIC [15, 16]: 20 µg/mL (≈ 75.4 µM)
